Results published in ChEMBL document CHEMBL1201862, “PubChem BioAssay data set” (2004).
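Results reflect a 48-hour exposure of cells in 96-well plates to compound at five concentrations. The concentration for 50% growth inhibition is given as GI50.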 The source made the active and inactive calls. Rule as the data show it: active = GI50 up to about 1.1 µM and inactive = higher.

How the values were obtained:
Experiment in all cases: DTP human tumour cell line panel, 48 h
MOLT-4 = test system: MOLT-4
UACC-257 = test system: UACC-257
SF-295 = test system: SF-295
SNB-78 = test system: SNB-78
LOX IMVI = test system: LOX IMVI
SW-620 = test system: SW-620
U-251 = test system: U-251
RPMI-8226 = test system: RPMI-8226
SF-268 = test system: SF-268
SK-OV-3 = test system: SK-OV-3
DMS-273 = test system: DMS-273
IGROV-1 = test system: IGROV-1
OVCAR-8 = test system: OVCAR-8
M19-MEL = test system: M19-MEL
HCT-116 = test system: HCT-116
HOP-18 = test system: HOP-18
SK-MEL-5 = test system: SK-MEL-5
SN12C = test system: SN12C
SF-539 = test system: SF-539
UACC-62 = test system: UACC-62
K562 = test system: K562
HOP-92 = test system: HOP-92
OVCAR-4 = test system: OVCAR-4
OVCAR-3 = test system: OVCAR-3
HOP-62 = test system: HOP-62
SNB-75 = test system: SNB-75
CAKI-1 = test system: CAKI-1
HT-29 = test system: HT-29
LXFL 529 = test system: LXFL 529
TK-10 = test system: TK-10
ACHN = test system: ACHN
M14 = test system: M14
UO-31 = test system: UO-31
RXF 393 = test system: RXF 393
SNB-19 = test system: SNB-19
OVCAR-5 = test system: OVCAR-5
SR = test system: SR
KM-20L2 = test system: KM-20L2
NCI-H23 = test system: NCI-H23
XF498 = test system: XF498
CCRF-CEM = test system: CCRF-CEM
A498 = test system: A498
DLD-1 = test system: DLD-1
HCC 2998 = test system: HCC 2998
A549 = test system: A549
NCI-H226 = test system: NCI-H226
NCI-H460 = test system: NCI-H460
DMS-114 = test system: DMS-114
HCT-15 = test system: HCT-15
786-0 = test system: 786-0
SK-MEL-28 = test system: SK-MEL-28
HL-60 = test system: HL-60
KM12 = test system: KM12
COLO 205 = test system: COLO 205
Malme-3M = test system: Malme-3M
SK-MEL-2 = test system: SK-MEL-2
EKVX = test system: EKVX
RXF 631 = test system: RXF 631
NCI-H522 = test system: NCI-H522

## CCN(CC)CC(=O)/C=C/c1ccc(C)cc1
MOLT-4
  GI50: 31.9 µM (inactive)
UACC-257
  GI50: 21.6 µM (inactive)
SF-295
  GI50: 32 µM (inactive)
SNB-78
  GI50: 51.8 µM (inactive)
LOX IMVI
  GI50: 18.5 µM (inactive)
SW-620
  GI50: 16.2 µM (inactive)
U-251
  GI50: 16.5 µM (inactive)
RPMI-8226
  GI50: 34.6 µM (inactive)
SF-268
  GI50: 27.9 µM (inactive)
SK-OV-3
  GI50: 29.2 µM (inactive)
DMS-273
  GI50: 22.2 µM (inactive)
IGROV-1
  GI50: 20.8 µM (inactive)
OVCAR-8
  GI50: 20.1 µM (inactive)
M19-MEL
  GI50: 17.6 µM (inactive)
HCT-116
  GI50: 17.5 µM (inactive)
HOP-18
  GI50: 23.2 µM (inactive)
SK-MEL-5
  GI50: 17.8 µM (inactive)
SN12C
  GI50: 17.6 µM (inactive)
SF-539
  GI50: 20.7 µM (inactive)
UACC-62
  GI50: 17.3 µM (inactive)
K562
  GI50: 35.6 µM (inactive)
HOP-92
  GI50: 30.1 µM (inactive)
OVCAR-4
  GI50: 15.8 µM (inactive)
OVCAR-3
  GI50: 19.9 µM (inactive)
HOP-62
  GI50: 34.1 µM (inactive)
SNB-75
  GI50: 24.3 µM (inactive)
CAKI-1
  GI50: 17.8 µM (inactive)
HT-29
  GI50: 22.3 µM (inactive)
LXFL 529
  GI50: 18.6 µM (inactive)
TK-10
  GI50: 28.3 µM (inactive)
ACHN
  GI50: 19.2 µM (inactive)
M14
  GI50: 17.4 µM (inactive)
UO-31
  GI50: 20.1 µM (inactive)
RXF 393
  GI50: 24.3 µM (inactive)
SNB-19
  GI50: 15.1 µM (inactive)
OVCAR-5
  GI50: 42.3 µM (inactive)
SR
  GI50: 27.7 µM (inactive)
KM-20L2
  GI50: 20.6 µM (inactive)
NCI-H23
  GI50: 30.5 µM (inactive)
XF498
  GI50: 31 µM (inactive)
CCRF-CEM
  GI50: 2.93 µM (inactive)
A498
  GI50: 56 µM (inactive)
DLD-1
  GI50: 25.1 µM (inactive)
HCC 2998
  GI50: 17.9 µM (inactive)
A549
  GI50: 27 µM (inactive)
NCI-H226
  GI50: 22.1 µM (inactive)
NCI-H460
  GI50: 20.6 µM (inactive)
DMS-114
  GI50: 21.9 µM (inactive)
HCT-15
  GI50: 18.9 µM
786-0
  GI50: 17.6 µM (inactive)
SK-MEL-28
  GI50: 23.8 µM (inactive)
HL-60
  GI50: 20.2 µM (inactive)
KM12
  GI50: 17.5 µM (inactive)
COLO 205
  GI50: 18.8 µM (inactive)
Malme-3M
  GI50: 19.5 µM (inactive)

## O=C(Nc1c(Cl)cc([N+](=O)[O-])cc1Cl)/C(=N\Nc1cccc(Cl)c1)c1c(O)c2ccccc2oc1=O
MOLT-4
  GI50: > 100 µM (inactive)
UACC-257
  GI50: > 100 µM (inactive)
SF-295
  GI50: > 100 µM (inactive)
SK-MEL-2
  GI50: > 100 µM (inactive)
SW-620
  GI50: > 100 µM (inactive)
RPMI-8226
  GI50: 50 µM (inactive)
SF-268
  GI50: 69.8 µM (inactive)
SK-OV-3
  GI50: > 100 µM (inactive)
IGROV-1
  GI50: > 100 µM (inactive)
EKVX
  GI50: 26.4 µM (inactive)
OVCAR-8
  GI50: > 100 µM (inactive)
M19-MEL
  GI50: > 100 µM (inactive)
HCT-116
  GI50: 56.1 µM (inactive)
SK-MEL-5
  GI50: > 100 µM (inactive)
SN12C
  GI50: 34.2 µM (inactive)
SF-539
  GI50: > 100 µM (inactive)
UACC-62
  GI50: 89.5 µM (inactive)
K562
  GI50: 65.9 µM (inactive)
OVCAR-4
  GI50: > 100 µM (inactive)
OVCAR-3
  GI50: > 100 µM (inactive)
HOP-62
  GI50: 74 µM (inactive)
HT-29
  GI50: > 100 µM (inactive)
TK-10
  GI50: > 100 µM (inactive)
RXF 631
  GI50: 53.6 µM (inactive)
ACHN
  GI50: 49.2 µM (inactive)
UO-31
  GI50: 23.6 µM (inactive)
RXF 393
  GI50: 66.2 µM (inactive)
SNB-19
  GI50: 87.1 µM (inactive)
OVCAR-5
  GI50: 31.3 µM (inactive)
SR
  GI50: 78.7 µM (inactive)
KM-20L2
  GI50: > 100 µM (inactive)
NCI-H23
  GI50: 62.7 µM (inactive)
CCRF-CEM
  GI50: 75.2 µM (inactive)
A498
  GI50: 21.2 µM (inactive)
DLD-1
  GI50: 42.9 µM (inactive)
HCC 2998
  GI50: > 100 µM (inactive)
NCI-H522
  GI50: 39.9 µM (inactive)
A549
  GI50: > 100 µM (inactive)
NCI-H460
  GI50: > 100 µM (inactive)
DMS-114
  GI50: 52.7 µM (inactive)
786-0
  GI50: > 100 µM (inactive)
SK-MEL-28
  GI50: > 100 µM (inactive)
HL-60
  GI50: 71.9 µM (inactive)
KM12
  GI50: > 100 µM (inactive)
COLO 205
  GI50: > 100 µM (inactive)
Malme-3M
  GI50: > 100 µM (inactive)
